Data as given in PubChem BioAssay (NCI).
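Cultured in 96-well plates, cells were exposed to test compound for 48 hours across five concentrations. The concentration for full growth arrest is given as TGI.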

How the values were obtained:
Experiment in all cases: DTP human tumour cell line panel, 48 h
SW-620 colon = system: SW-620 colon
OVCAR-3 ovarian = system: OVCAR-3 ovarian
TK-10 renal = system: TK-10 renal
HCT-15 colon = system: HCT-15 colon
MDA-N = system: MDA-N
U251 CNS = system: U251 CNS
NCI-H460 lung = system: NCI-H460 lung
SR leukemia = system: SR leukemia
RXF 393 renal = system: RXF 393 renal
MDA-MB-435 = system: MDA-MB-435
OVCAR-5 ovarian = system: OVCAR-5 ovarian
COLO 205 colon = system: COLO 205 colon
MOLT-4 leukemia = system: MOLT-4 leukemia
SNB-19 CNS = system: SNB-19 CNS
A549 NSCLC = system: A549 NSCLC

| SMILES | TGI (SW-620 colon) [µM] | TGI (OVCAR-3 ovarian) [µM] | TGI (TK-10 renal) [µM] | TGI (HCT-15 colon) [µM] | TGI (MDA-N) [µM] | TGI (U251 CNS) [µM] | TGI (NCI-H460 lung) [µM] | TGI (SR leukemia) [µM] | TGI (RXF 393 renal) [µM] | TGI (MDA-MB-435) [µM] | TGI (OVCAR-5 ovarian) [µM] | TGI (COLO 205 colon) [µM] | TGI (MOLT-4 leukemia) [µM] | TGI (SNB-19 CNS) [µM] | TGI (A549 NSCLC) [µM] |
| --- | --- | --- | --- | --- | --- | --- | --- | --- | --- | --- | --- | --- | --- | --- | --- |
| N#Cc1c(N2CCN(c3ccc([N+](=O)[O-])cc3)CC2)[n+](=O)c2ccccc2n1[O-] | > 100 | > 100 | > 100 | > 100 | > 100 | > 100 | > 100 | 5.69 | > 100 | > 100 | > 100 | > 100 | > 100 | > 100 | > 100 |
| COC(=O)C1=NN2c3ccccc3CN([C@@H](C)c3ccccc3)C(=O)[C@@H]2[C@H]1c1ccccc1 | > 100 | > 100 | > 100 | > 100 | > 100 | > 100 | > 100 | > 100 | > 100 | > 100 | > 100 | > 100 | > 100 | > 100 | > 100 |
| Clc1c2ccccc2nc2c1[nH]c1ccccc12 | > 100 | > 100 | > 100 | > 100 | 16.9 | > 100 | > 100 | 43.6 |  | > 100 | > 100 | 11.8 | 9.61 | > 100 | > 100 |
| O=C1CC2SC(COCc3ccccc3)(CCN2Cc2ccccc2)C1 (stereo not drawn) | > 100 | > 100 | 76.3 | > 100 | > 100 | > 100 | > 100 | > 100 | > 100 | > 100 | > 100 | > 100 | 91.9 | > 100 | > 100 |
| CC1CN=C(Nc2ccc(F)c(Cl)c2)S1 (stereo not drawn) | > 100 | > 100 | > 100 | > 100 | > 100 | > 100 | > 100 | > 100 | > 100 | > 100 | > 100 | > 100 |  | > 100 | > 100 |
| CN(CCCn1ccnc1[N+](=O)[O-])CCCn1ccnc1[N+](=O)[O-] | > 100 | > 100 | > 100 | > 100 | > 100 | > 100 | > 100 | > 100 | > 100 | > 100 | > 100 | > 100 | > 100 |  | > 100 |
| CCCC(=O)NC(Nc1ccc(S(=O)(=O)Nc2ccc(OC)nn2)cc1)(C(F)(F)F)C(F)(F)F | > 100 | > 100 | > 100 | > 100 | > 100 | > 100 | > 100 | > 100 | > 100 | > 100 | > 100 | > 100 | > 100 | > 100 | > 100 |
| NC(=O)C(=CNC(=S)Nc1cccc(C(F)(F)F)c1)C(N)=O | > 100 | > 100 | > 100 |  | > 100 | > 100 | > 100 | > 100 | > 100 | > 100 | > 100 | > 100 | > 100 | > 100 | > 100 |
| CC[C@H](C)[C@H](NC(=O)[C@@]1(O)[C@H](O)[C@]2(CC)C=CCN3CC[C@@]4(c5cc(Br)c(OC)cc5N(C)[C@@H]14)[C@@H]32)C(=O)OC | > 100 | > 100 | > 100 | > 100 | > 100 | > 100 | > 100 | > 100 | > 100 | 71.3 | > 100 | 29.2 | > 100 | > 100 | > 100 |
| CC(=O)Nc1ccc(Sc2nnc(NC(C)=O)s2)cc1 | > 100 |  | > 100 | > 100 | > 100 | > 100 | > 100 | > 100 |  | > 100 | > 100 | > 100 | > 100 | > 100 | > 100 |
| O=c1oc2ccc3ccccc3c2cc1-c1nc2ccc([N+](=O)[O-])cc2o1 | > 100 | > 100 | > 78.6 | > 100 | > 100 | > 100 | > 100 | > 100 | 19.1 | > 100 | > 100 | > 100 | > 100 | > 28.6 | > 79.1 |
| COc1cccc(/C=C\c2ccc(O)cc2)c1 | > 90.7 | > 82.7 | > 100 | > 76.1 | > 100 | > 57.5 | > 67.3 | 20.1 | > 78.8 | > 91.2 | > 100 | > 100 | 38.7 | > 100 | > 80.9 |
| O=c1oc2ccc([N+](=O)[O-])cc2cc1Br | > 100 | > 100 | > 100 |  | > 100 | > 100 | > 100 | > 100 | > 100 | > 100 | > 100 | > 100 | > 100 | > 100 | > 100 |
| Cc1ccc(N2C(N)=C(C#N)C(C#N)(C#N)C2c2ccccc2)cc1 (stereo not drawn) | 15.2 | 27.4 | 28 | 22.6 | 12 | 31.6 |  | 33.7 | 25.3 | 14.1 | 32.4 | 24 | 8.27 | 34.5 | 38.2 |
| O=C1c2ccccc2C(=O)N1CC(CN1C(=O)c2ccccc2C1=O)(C(=O)OCc1ccccc1)C(=O)OCc1ccccc1 |  | > 100 |  | > 100 | > 100 | > 100 | > 100 | > 100 | > 100 | > 100 | > 100 | > 100 | > 100 | > 100 |  |
| Nc1nc(=S)n(-c2ccc(Cl)cc2)c2nc3ccccc3cc12 | > 100 | > 100 | 98.3 | > 100 | > 100 | > 100 | > 100 | > 100 | > 100 | > 100 | > 100 | > 100 |  | > 100 | > 100 |

| SMILES | TGI (SW-620 colon) [µM] | TGI (OVCAR-3 ovarian) [µM] | TGI (TK-10 renal) [µM] | TGI (HCT-15 colon) [µM] | TGI (MDA-N) [µM] | TGI (U251 CNS) [µM] | TGI (NCI-H460 lung) [µM] | TGI (SR leukemia) [µM] | TGI (RXF 393 renal) [µM] | TGI (MDA-MB-435) [µM] | TGI (OVCAR-5 ovarian) [µM] | TGI (COLO 205 colon) [µM] | TGI (MOLT-4 leukemia) [µM] | TGI (SNB-19 CNS) [µM] | TGI (A549 NSCLC) [µM] |
| --- | --- | --- | --- | --- | --- | --- | --- | --- | --- | --- | --- | --- | --- | --- | --- |
| [N-]=[N+]=CC(=O)CCC(=O)N(c1ccccc1)c1ccccc1 | > 10 | > 10 | > 10 | > 10 | > 10 | > 10 | > 10 | > 10 | > 10 | > 10 | > 10 |  | > 10 | > 10 | > 10 |
| Cc1csc(NNC(=O)Nc2ccccc2)n1 | > 100 |  |  | > 100 | > 100 | > 100 | > 100 | > 100 | > 100 | > 100 | > 100 | > 100 |  | > 100 | > 100 |
| CC1=CCC2CC1NC(=O)CCOCCC(=O)NC2(C)C (stereo not drawn) | > 100 |  | > 100 | > 100 | > 100 | > 100 | > 100 | > 100 | > 100 | > 100 | > 100 | > 100 | > 100 | > 100 | > 100 |
| COc1cc(C2c3c(ccc4ccccc34)C(=O)C3CCC(=O)N32)cc(OC)c1O (stereo not drawn) | > 25 | > 25 |  | > 25 | > 25 | > 25 | > 25 | > 25 | > 25 | > 25 | > 25 | > 25 | > 25 | > 25 | > 25 |
| COc1cc2c[n+](C)c3c(c2cc1OC)Cc1cc2c(cc1-3)OCO2 | > 100 | > 100 | > 100 | > 100 | > 100 | > 100 |  | > 100 |  | > 100 | > 100 | > 100 | > 100 | > 100 | > 100 |
| c1ccc([P+](c2ccccc2)(c2ccccc2)C2c3ccccc3-c3ccccc32)cc1 | 16.2 | 5.68 | 9.21 | 11 | 7.84 | 4.12 | 10.2 |  | 5.06 | 3.18 | 42 | 2.63 | 7.12 | 10.3 | 14.3 |
| CC(C)[C@@H](C)[C@@]1(C)C[C@@H]1[C@@H](C)[C@H]1CC[C@@H]([C@@H]2CC=C3C[C@@H](O)CC[C@]3(C)C2=O)[C@]1(C)CCO | 20.1 | 25.6 | 23.6 | 17.4 | 26.1 | 23 | 3.32 | 13.3 | 11.5 | 24.3 | 23.8 | 24.3 | 19.3 | 25.1 |  |
| O=c1c2ccccc2[nH]c2c(Cl)cc(Cl)c(N3CCCCC3)c12 | 84.8 | > 100 | > 100 | > 100 | 63.1 | 62.4 |  | > 100 |  | 55.8 | > 100 | > 100 | > 100 | 77.9 | > 100 |
| COC1=CC(=O)C2=C(C[C@@]3(C)C(=C2)C(CO)=CC[C@H]3O)C1=O | 60.6 | 56.2 | > 100 | 88.5 | 37.4 | 41.6 | 60.7 |  | 30.9 | 41.2 | 54.5 | 65.9 | 2.49 | > 100 | > 100 |
| S=C(N1CCN(c2ccccc2)CC1)N1CCN(c2ccccc2)CC1 | > 100 | > 100 | > 100 | > 100 | > 100 | > 100 | > 100 |  | > 100 | > 100 | > 100 | > 100 | > 100 | > 100 | > 100 |
| COC1C(O)C(C)OC(OC2CCC3(C)C(CCC4C3C(O)CC3(C)C(C5=CC(=O)OC5)CCC43O)C2)C1O (stereo not drawn) | 4.9 | 0.553 | 1.57 | 1.03 | 0.905 |  | 0.777 | > 100 | 0.237 | 1.24 | 1.77 | 1.57 | 0.174 | 2.04 | 0.192 |
| Cc1nnc(Sc2nc(C#N)c(C#N)nc2Sc2nnc(C)s2)s1 |  | 25.3 | 41.4 | 7.42 | 49.7 | 47.5 | > 76.1 | > 26.4 | 6 | > 84.7 | 46.5 | > 53.3 | 5.47 | 54.6 | 56.2 |
| CCCCc1ccc(C#CC#Cc2ccc(CCCC)s2)s1 | > 100 | > 100 | > 100 | > 100 | > 100 | > 100 | > 100 | > 100 | > 100 | > 100 | > 100 | > 100 | > 100 |  |  |
| COC1/C=C/C(C)C(C(C)C(OC)C(C)CCC(=O)C(C)C(CC(=O)O)OC)OC(=O)/C=C/C=C(\C)CC(OC)CC2=CC(=O)O[C@H](C2)C(C)C(OC)CC(OC)/C=C/C(C)C(OC)C1 (stereo partly drawn) | > 4.35 | > 4.35 | 1.66 | > 4.35 | > 4.35 | > 4.35 | > 4.35 | > 4.35 |  | > 4.35 | > 4.35 | > 4.35 | > 4.35 | > 4.35 | > 4.35 |
| C/C(Cc1ccc2c(c1)OCO2)=N\NC(=O)C(C)Sc1nnc(SC(C)C(=O)N/N=C(\C)Cc2ccc3c(c2)OCO3)s1 (stereo not drawn) | > 100 | > 100 | > 100 | > 100 | > 100 | > 100 | > 100 |  | > 100 | > 100 | > 100 | > 100 | > 100 | > 100 | > 100 |
